# Reference: patent US20240325375A1, “Effect of YEL002 on Psychological and Psychiatric Factors in Health and Disease” (RadMit, Inc., priority 2023, published 2024)
# Tests used:
# lymphoma = assay: Lymphoma incidence in mice (National Institute of Health experiment); format: in vivo; details: radiation exposure caused 90% to develop lymphoma without treatment
# Protocol: In another experiment at the National Institute of Health, in other mice after radiation exposure which caused 90% of them to develop lymphoma, there was a reduction of the lymphoma incidence to 40% and the spontaneous frequency was reduced from 10-20% down to 0%. […] This was observed after treating mice right after birth, if humans are treated later in life it is possible that only 10 or 5 years are added and probably more for DNA repair deficient diseases like ataxia telangiectasia (ATM) which is still very substantial, especially, since it treats and reduces the likelihood of many diseases.
# [1] = Case studies and patient testimonials; format: in vivo, human
# [2] = Clinical trial on psychological, psychiatric and memory loss endpoints; format: in vivo, human
# Text: 7 less argumentative, 10 less angry or aggressive. 8 experienced better quality sleep. 8 needed less sleep and 5 became nicer. It gets rid of addictions and reduces symptoms of depression and Alzheimer's disease.
# [3] = tested on: three different cancer cell lines; assay: Radiation killing of cancer cell lines; format: cell-based
# Text: (§1) It is also observed that three different cancer cell lines were not protected from radiation killing by YEL002, which indicates a use in radiation oncology or chemotherapy where the tumor can still be killed by the radiation, or chemotherapy but YEL002 protects the rest of the body from radiation or chemotherapy damage, and inhibits secondary carcinogenesis.
# Covid virus = format: in vivo; details: compared with without YEL002
# ATM-deficient mice = assay: Lifespan of ATM-deficient mice injected weekly; format: in vivo; details: ATM-deficient mice injected every week during most of their lifespans
# Text: It is speculated that this is because the primary screen applied was against radiation-induced toxicity as well as genotoxicity which causes cancer. Researchers involved in other labs were screening only against radiation-induced toxicity and thereby cells with genotoxicity survive and cause even more cancer and late effects of which surviving mice died. In our experiments, however, a screen against radiation induced toxicity as well as genetic instability made sure that the surviving cells also had no genetic instability which otherwise would have led to an increase in cancer and other diseases. In the experiment, ATM-deficient mice injected every week with YEL002 during most of their lifespans lived 33% longer than without injections.
# human keratinocytes = assay: Proteomics study of protein induction; format: cell-based
# Text: In terms of mechanism of action in a proteomics study, the chemical was capable of inducing 244 different proteins in human keratinocytes, which comprised anti-inflammatory proteins, DNA repair proteins, and 9 neuroprotective proteins. It is known that turtles at the Galapagos Islands live 150 or more years without cancer and have multiple copies of DNA repair genes and anti-inflammatory genes. The compound boosts the expression of these genes in mammals. Since it induces DNA repair and is anti-inflammatory, it may be possible to prevent and cure many diseases and extend the life.
# A direct effect of YEL002 on the autonomic or sympathetic nervous system, the flight or fight response, which can explain all the effects that we find.
# Solubility of the powder = format: physicochemical; details: off-white powder
# Protocol: The compound takes the appearance of an off-white powder and is fat soluble. One takes an eighth teaspoon or about 0.5 g dissolved in a couple of teaspoons of oil. In an exemplary embodiment, it is dissolved in grape seed or any other appropriate oil and taken twice a day, once in the morning and once in the evening. It is easy to use and has almost no taste.
# irradiated mice = assay: Radiation mitigation in mice irradiated with an LD100; format: in vivo
# [4] = Side effects and blood thinning; format: in vivo
# Protocol: Thus, if nose bleeding occurs at that dose when blowing one's nose, one should reduce the dose to half and nose bleeding will stop within about 12 hours or less. Once the flue or sneezing is gone one may increase the dose again.
# as §1
# [5] = PHQ-9 assessment of a patient with recalcitrant depression; format: in vivo, human
# Protocol: If they work at all, improvements take at least 4 weeks and may increase patient weight. In this patient's assessment using a standard PHQ-9 form, the patient was assessed before and after treatment with YEL002. The PHQ-9 form assigns a numerical value corresponding to the level of depression, meaning a higher level means increased depression values. In this patient, before treatment, the values was in 3 different instances 6, 9 and 15 with designation of “very difficult” and “extremely difficult” and they cried 3 times during 30 minutes of our interview and said they hate the world. Before the test indicates mild depression to moderately severe depression. […] Since there is no lower designation this indicates no depression. This is also called snapping out of depression, which was a technical term in the past because it was not observed before now.
# Effects on pets (cats) = format: in vivo; details: cats after treatment
# Protocol: Effects on pets. My cats, Susie and Celine were the sweetest cats before I started to treat them. But after treatment they are now even sweeter, cuddlier and more attached to me, and sleep 2 hours longer per day. I call them lap cats now like the dog pendant. They lost loofiness, shyness to new visitors, quietly sit next to each other and licking each other or me and just want to sit close to me or on my lap and be petted. Before after 5 to 10 minutes of petting they just left and did something else. Now they stay for hours and the only reason for them to leave is when I stop petting them. And they are even better at play and jump exactly, landing where they intend to, don't bump into things and catch the toys the first time every time.
# [6] = heavy smoker, one week after treatment
# [7] = subject on chemotherapy, one week on YEL002
compound,measurement,setting,value
COc1ccc2cc(-c3nc4ccc(C)cn4c3NCc3ccco3)c(=O)[nH]c2c1 [YEL002],lymphoma incidence after radiation exposure,lymphoma,40%
same,memory of patient with Alzheimer's disease,[1]; after 4 weeks treatment,improved
same,cholesterol,[1]; after two days of treatment,normal
same,symptoms of coughing and diarrhea,"[1]; case study, used for eight weeks",reduced symptoms of coughing and diarrhea
same,allergic attacks such as sneezing and runny nose,"[1]; dissolved in oil, nose spray 2-4 times a day",completely prevented
same,hair loss,[1]; [6],completely stopped
same,smoker's legs oozing lymph liquid,[1]; [6],completely healed
same,astigmatism fixed,[1]; in only 4 weeks,1
same,eye-sight deficiency fixed,[1]; in only 4 weeks,2 diopters
same,coughing and wheezing symptoms post-chemotherapy,[1]; one hour after treatment,completely alleviated
same,blood,[1]; patient testimonial,thinner
same,major arguments with spouse,"[1]; patient with long COVID19 and diabetes, 5-10 before treatment",0-1 per day
same,memory of another person,[1]; remembers where they left their car,much improved
same,vomiting under chemotherapy,[1]; [7],completely stopped
same,weight gained,[1]; [7],2 kg
same,levels of liver damage,"[1]; twice elevated for 25 years, after two days of treatment",normal and below the cutoff
same,alcohol addiction,[1]; two alcoholics,completely cured
same,periodontics or receding gums,[1]; user study,healed
same,became nicer,[2],5 people
same,experienced better quality sleep,[2],8 people
same,felt more energetic,[2],10 people
same,less angry or aggressive,[2],10 people
same,less argumentative,[2],7 people
same,less combative,[2],7 people
same,less tired,[2],5 people
same,needed less sleep,[2],8 people
same,protection of cancer cell lines from radiation killing,[3],not protected
same,clearance of Covid virus,Covid virus,cleared faster
same,lived longer than without injections,ATM-deficient mice,33%
same,number of different proteins induced,"human keratinocytes; human keratinocytes, anti-inflammatory, DNA repair and neuroprotective proteins",244 proteins
same,number of neuroprotective proteins/functions induced,human keratinocytes; proteomics,9
same,solubility,Solubility of the powder,fat soluble
same,survival of irradiated mice,"irradiated mice; LD100 radiation, IP injection 24 hours after radiation and another four doses in 24 hours intervals, without it 100% died after 10 to 15 days",100%
same,life span of surviving irradiated mice,"irradiated mice; many of the surviving mice, normal life span",more than 2 years
same,blood-thinning; nose bleeding at the dose,"[4]; about 1 gram per day, nose bleeding stops within about 12 hours or less at half dose",blood-thinning properties
same,side effects,[4]; in vivo,no side effects
same,PHQ-9 value after treatment,"[5]; after one week on YEL002, the following two weeks, before treatment 6, 9 and 15",3
same,PHQ-9 difficulty designation after treatment,[5]; before treatment very difficult and extremely difficult,somewhat difficult
same,recalcitrant depression outcome,"[5]; person with depression for 20 years, within one week",completely cured
same,cats sleep longer,Effects on pets (cats),2 hours per day
